We go through 13 compounds from patent US20250296940A1, “ANNULATED 2-AMINO-3-CYANO THIOPHENES AND DERIVATIVES FOR THE TREATMENT OF CANCER” (Boehringer Ingelheim Int'l GmbH Corp., priority 2021, published 2025).

≈ marks a conversion by molar mass, not a printed value. Like-named read-outs stand apart in the source and are kept apart here. Where only a bound is given, the exact number is not on record here.

One series has as its target Ba/F3 KRASG12C cells (Homo sapiens, UniProt P01116, G12C, cells depend on it). The series is described as follows: Ba/F3 cell model proliferation assay (AlamarBlue, 72 h). The conditions noted are these: without IL-3, read-out: IC50 Ba/F3 KRASG12C. The class given is cell-based. The procedure: Plasmids containing KRASG12 mutants were obtained from GeneScript. […] Retrovirus was added to Ba/F3 cells. To ensure infection, 4 μg/mL polybrene was added and cells were spinfected. […] As a control, parental Ba/F3 cells were used to show selection status. Selection was considered successful when parental Ba/F3 cells cultures died. […] Ba/F3 cells harboring the empty vector were used as a control. Approximately ten days before conducting the experiments, puromycin was left out.
Compounds were added using an Access Labcyte Workstation with a Labcyte Echo 550 or 555 acoustic dispenser. All treatments were performed in technical duplicates. The assay is run using a fully automated robotic system. […] AlamarBlue™ (ThermoFisher), a viability stain, was added and fluorescence measured in the PerkinElmer Envision HTS Multilabel Reader. The raw data were imported into and analyzed with the Boehringer Ingelheim proprietary software MegaLab (curve fitting based on the program PRISM, GraphPad Inc.).
Background: Alamar Blue is a resazurin reagent that responds to reducing activity.

Series [1] is described as follows: Metabolic (microsomal) stability assay. The class given is in vitro ADME. The conditions noted are these: human liver microsomes 1 mg/mL, 1 μM compound, 37° C.; predicted clearance as percent of liver blood flow. The procedure: The metabolic degradation of the test compound is assayed at 37° C. with pooled liver microsomes (mouse (MLM), rat (RLM) or human (HLM)). The final incubation volume of 48 μL per time point contains TRIS buffer (pH 7.5; 0.1 M), magnesium chloride (6.5 mM), microsomal protein (0.5 mg/mL for mouse/rat, 1 mg/mL for human specimens) and the test compound at a final concentration of 1 μM. Following a short preincubation period at 37° C., the reactions are initiated by addition of 12 μL beta-nicotinamide adenine dinucleotide phosphate, reduced form (NADPH, 10 mM) and terminated by transferring an aliquot into solvent after different time points (0, 5, 15, 30, 60 min). Additionally, the NADPH-independent degradation is monitored in incubations without NADPH, terminated at the last time point by addition of acetonitrile. The quenched incubations are pelleted by centrifugation (4,000 rpm, 15 min). An aliquot of the supernatant is assayed by LC-MS/MS to quantify the concentration of parent compound in the individual samples.
In vitro intrinsic clearance (CLint, in vitro) is calculated from the time course of the disappearance of the test drug during the microsomal incubation. Each plot is fitted to the first-order elimination rate constant as C(t)=C0*exp(−ke*t), where C(t) and C0 are the concentration of unchanged test drug at incubation time t and that at preincubation and ke is the disappearance rate constant of the unchanged drug. Subsequently, CLint, in vitro (μL min^−1·amount protein) values are converted to predicted CLint,in vivo (mL min^−1·kg^−1) from incubation parameters according to the equation CLint, in vivo=CLint, in vitro×(incubation volume (ml)/amount protein (mg))×(amount protein (mg)/g liver tissue)×(liver weight/body wt.).
For better across species comparison the predicted clearance is expressed as percent of the liver blood flow [% QH](mL min^−1 kg^−1) in the individual species. In general, high stability (corresponding to low % QH) of the compounds across species is desired.
Metabolic stability data obtained with the disclosed assay in HLM for a selection of compounds (I) according to the invention: […]

For series [2], the system named is NCI-H358 cells (NSCLC, G12C). The series is described as follows: NCI-H358 CTG proliferation assay (120 h). It is filed as cell-based. Particulars: Homo sapiens, NCI-H358, CellTiter-Glo. The procedure: NCI-H358 cells (ATCC No. CRL-5807) are dispensed into white bottom opaque 96 well plates (Perkin Elmer cat no. 5680) at a density of 2000 cells per well in 100 μL RPMI-1640 ATCC-Formulation (Gibco #A10491)+10% FCS (fetal calf serum). […] Compounds (10 mM stock in DMSO) are added at logarithmic dose series using the HP Digital Dispenser D300 (Tecan), normalizing for added DMSO and including DMSO controls. For the TO time point measurement, untreated cells are analyzed at the time of compound addition. Plates are incubated for 120 h, and cell viability is measured using CellTiter-Glo luminescent cell viability reagent (Promega product code G7570). Viability (stated as percent of control) is defined as relative luminescence units RLU of each well divided by the RLU of cells in DMSO controls. IC50 values are determined from viability measurements by non-linear regression using a four parameter model.
IC50 values of representative compounds according to the invention measured with these assays in the indicated cell lines: […]

The nature of series [3]: Solubility measurement (DMSO solution precipitation method). The class given is physicochemical. Particulars: aqueous buffer, kinetic from dmso stock, ambient temperature. The procedure:
The DMSO solution is diluted with an aqueous medium (McIlvaine buffer with pH=4.5 or 6.8) to a final concentration of 250 μM. After 24 h of shaking at ambient temperature a potentially formed precipitate is removed by filtration. The concentration of the test compound in the filtrate is determined by LC-UV methods by calibrating the signal to the signal of a reference solution with complete dissolution of the test compound in acetonitrile/water (1:1) with known concentration.
Data obtained with the disclosed assay for a selection of compounds (I) according to the invention: […]

Where [4] appears, read: McIlvaine buffer pH 4.5, 24 h, read-out: Solubility pH 4.5.
The mark [5] stands for this setting: McIlvaine buffer pH 6.8, 24 h, read-out: Solubility pH 6.8.

As usually defined, the IC50 is the point on the concentration scale where inhibition reaches its midpoint. High values mean lower potency, low ones higher potency. What is called solubility is how much of the substance goes into solution per volume.

Sequence of Ba/F3 KRASG12C cells (P01116 whole entry G12C): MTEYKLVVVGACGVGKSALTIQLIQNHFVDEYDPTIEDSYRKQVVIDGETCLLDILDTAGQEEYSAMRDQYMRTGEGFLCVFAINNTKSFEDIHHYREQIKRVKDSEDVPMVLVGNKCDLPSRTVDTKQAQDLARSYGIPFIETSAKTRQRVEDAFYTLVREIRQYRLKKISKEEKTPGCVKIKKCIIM

With `C=C(F)C(=O)N1[C@@H](C)CN(c2cc(O[C@@H](C)[C@@H]3CCCN3C)nc(-c3onc4c3CCC[C@@]43CCCc4sc(N)c(C#N)c43)n2)C[C@@H]1C` [Ia-1], the GI50 at Ba/F3 KRASG12C cells was found to be 0.8 nM. In addition, in series [1], the “HLM QH” value is listed as below 24%. In series [2], this compound gave an IC50 of 1 nM. Besides, the solubility at 24 h in series [3] (setting [4]) came out at 125 µg/mL (≈ 185 µM); in series [3] (setting [5]), 57 µg/mL (≈ 84.5 µM).
For `C=CC(=O)N1[C@@H](C)CN(c2cc(O[C@@H](C)[C@@H]3CCCN3C)nc(-c3onc4c3CCC[C@@]43CCCc4sc(N)c(C#N)c43)n2)C[C@@H]1C` [Ia-2] the same measures were 0.1 nM, below 24%, below 1 nM, above 156 µg/mL and 126 µg/mL (≈ 192 µM).
For the compound `C=C(F)C(=O)N1[C@@H](C)CN(c2cc(-c3onc4c3CCC[C@@]43CCCc4sc(N)c(C#N)c43)nc(O[C@@H](C)[C@@H]3CCCN3C)n2)C[C@@H]1C` [Ia-3], the GI50 at Ba/F3 KRASG12C cells amounted to 3.7 nM. Further, in series [1], the “HLM QH” value is on record as 41%. Moreover, the concentration for half-maximal inhibition (IC50) in series [2] amounted to 7 nM. Further, the solubility at 24 h in series [3] (setting [4]) is 116 µg/mL (≈ 172 µM); in series [3] (setting [5]) it was below 1 µg/mL.
Take `C=CC(=O)N1[C@@H](C)CN(c2cc(-c3onc4c3CCC[C@@]43CCCc4sc(N)c(C#N)c43)nc(O[C@@H](C)[C@@H]3CCCN3C)n2)C[C@@H]1C` [Ia-4]: the GI50 at Ba/F3 KRASG12C cells was 0.1 nM. Also, the “HLM QH” value in series [1] was 28%. This compound also displayed an IC50 in series [2] below 1 nM. Moreover, the solubility at 24 h in series [3] (setting [4]) is above 163 µg/mL; in series [3] (setting [5]), above 160 µg/mL.
Regarding `C[C@H](Oc1cc(N2C[C@H](C)N(C(=O)/C=C/CF)[C@@H](C)C2)nc(-c2noc3c2CCC[C@@]32CCCc3sc(N)c(C#N)c32)n1)[C@@H]1CCCN1C` [Ib-1], the GI50 on Ba/F3 KRASG12C cells came out at 0.5 nM. Also, the “HLM QH” value in series [1] is below 24%. In series [2], this compound yielded an IC50 of 1 nM.
On to `C=CC(=O)N1CCN(c2cc(O[C@@H](C)[C@@H]3CCCN3C)nc(-c3noc4c3CCC[C@@]43CCCc4sc(N)c(C#N)c43)n2)CC12CC2` [Ib-2], for which the GI50 at Ba/F3 KRASG12C cells worked out at 0.3 nM. In addition, the “HLM QH” value in series [1] is below 24%. Also, in series [2], the IC50 was 1 nM. Further, the solubility at 24 h in series [3] (setting [4]) came out at 111 µg/mL (≈ 170 µM); in series [3] (setting [5]), 77 µg/mL (≈ 118 µM).
Consider `C=CC(=O)N1[C@@H](C)CN(c2cc(O[C@@H](C)[C@@H]3CCCN3C)nc(-c3noc4c3CCC[C@@]43CCCc4sc(N)c(C#N)c43)n2)C[C@@H]1C` [Ib-3], for which the GI50 at Ba/F3 KRASG12C cells worked out at 0.2 nM. In addition, in series [1], the “HLM QH” value is given as 34%. Besides, in series [2], the half-maximal inhibitory concentration (IC50) is below 1 nM. In addition, the figures for the solubility at 24 h in series [3] (setting [4]) and in series [3] (setting [5]) were 130 µg/mL (≈ 198 µM) and 121 µg/mL (≈ 184 µM), respectively.
For `C=CC(=O)N1[C@@H](C)CN(c2cc(-c3noc4c3CCC[C@@]43CCCc4sc(N)c(C#N)c43)nc(O[C@@H](C)[C@@H]3CCCN3C)n2)C[C@@H]1C` [Ib-4] the same measures were 0.1 nM, 45%, below 1 nM, above 140 µg/mL and 129 µg/mL (≈ 196 µM).
For `C=C(F)C(=O)N1[C@@H](C)CN(c2cc(O[C@@H](C)[C@@H]3CCCN3C)nc(-c3noc4c3CCC[C@@]43CCCc4sc(N)c(C#N)c43)n2)C[C@@H]1C` [Ib-5] the same measures were 0.5 nM, below 24%, 1 nM, 116 µg/mL (≈ 172 µM) and 40 µg/mL (≈ 59.3 µM).
Regarding `C=C(F)C(=O)N1[C@@H](C)CN(c2cc(-c3noc4c3CCC[C@@]43CCCc4sc(N)c(C#N)c43)nc(O[C@@H](C)[C@@H]3CCCN3C)n2)C[C@@H]1C` [Ib-6], the GI50 at Ba/F3 KRASG12C cells was determined as 1.6 nM. Further, the “HLM QH” value in series [1] was 72%. This compound also returned a 50% inhibitory concentration (IC50) in series [2] of 2 nM. The solubility at 24 h came to 113 µg/mL (≈ 167 µM) in series [3] (setting [4]) and 50 µg/mL (≈ 74.1 µM) in series [3] (setting [5]).
For `C[C@H](Oc1nc(-c2noc3c2CCC[C@@]32CCCc3sc(N)c(C#N)c32)cc(N2C[C@H](C)N(C(=O)/C=C/CF)[C@@H](C)C2)n1)[C@@H]1CCCN1C` [Ib-7], in that order: 1.6 nM, 64%, 4 nM, above 139 µg/mL and 108 µg/mL (≈ 157 µM).
For `C[C@H](Oc1nc(-c2noc3c2CCC[C@@]32CCCc3sc(N)c(C#N)c32)cc(N2C[C@H](C)N(C(=O)/C=C/c3cccnc3)[C@@H](C)C2)n1)[C@@H]1CCCN1C` [Ib-8], in that order: 25.1 nM, 49%, 85 nM, 102 µg/mL (≈ 139 µM) and 13 µg/mL (≈ 17.7 µM).
For `COC/C=C/C(=O)N1[C@@H](C)CN(c2cc(-c3noc4c3CCC[C@@]43CCCc4sc(N)c(C#N)c43)nc(O[C@@H](C)[C@@H]3CCCN3C)n2)C[C@@H]1C` [Ib-9], in that order: 15.1 nM, 76%, 90 nM, 83 µg/mL (≈ 118 µM) and 114 µg/mL (≈ 163 µM).
